SMILES strings stand for the structures. Structures can show the parent of a compound that is named as a salt. Where two headings read alike, the source gives them in different places.

Drawing on patent publication US4895842A, “Phenylalanine derivative and proteinase inhibitor” (Shosuke Okamoto, priority 1985, dated 1990), this text covers IC50 for twelve compounds.

Test [1] deals with T1, bovine thrombin (Bos taurus, UniProt P00735). The test can be described thus: Antithrombin activity: inhibition of S-2238 decomposition. The format is biochemical. The note with it: S-2238 substrate, read-out: Thrombin S-2238 (I50). The procedure: (ii) Determination of inhibition activity for S-2238 decomposition
An inhibitor sample is dissolved in a 0.05M Tris-hydrochloric acid buffer solution (pH=8.3) to make a total volume of 400 μl. To this solution, 50 μl of a 0.2 mM S-2238 solution is added and the mixture is incubated at a temperature of 37° C. for 5 minutes in a constant temperature bath. Then, 50 μl of a 0.2 unit/ml bovine thrombin solution is added thereto and the absorbance, at 405 nm, of the p-nitroaniline formed per minute is determined at a temperature of 37° C. by using the so-called initial velocity method. Thus, the concentration I50 (μmol) of the inhibitor sample at which the absorbance is one half (i.e., 1/2) of that obtained in the absence of the inhibitor sample, is determined.

Test [2] has as its target human urokinase (Homo sapiens, UniProt P00749). In words: biochemical. On the procedure:
Determination of inhibition activity for S-2444 decomposition
An inhibitor sample is dissolved in a 0.05M Tris-hydrochloric acid buffer solution (pH=8.8) to make the total volume to 400 μl. To this solution, 50 μl of a 1 mM S-2444 solution is added and the mixture is incubated at a temperature of 37° C. for 5 minutes in a constant temperature bath. Then, 50 μl of a 500 unit/ml human urokinase is added and the mixture is incubated at a temperature of 37° C. for 5 minutes. Thereafter, 50 μl of 50% acetic acid is added to terminate the reaction. The absorbance of the p-nitroaniline formed in the reaction mixture is measured at 405 nm. Thus, the concentration I50 (μmol) of the inhibitor sample, at which the absorbance is one half (i.e., 1/2) of that obtained in the absence of the inhibitor sample, is determined.

The target in test [3] is human plasma kallikrein (Homo sapiens, UniProt P03952). In words: Anti-plasma kallikrein activity: inhibition of S-2302 decomposition. Format: biochemical.
Protocol: Determination of inhibition activity for S-2302 decomposition
An inhibitor sample is dissolved in a 0.05M Tris-hydrochloric acid buffer solution (pH=7.8) to make the total volume to 400 μl. To this solution, 50 μl of a 2 mM S-2302 solution is added and the mixture is incubated at a temperature of 37° C. for 5 minutes in a constant temperature bath. Then, 50 μl of a 0.12 unit/ml human plasma kallikrein is added and the mixture is incubated at a temperature of 37° C. for 5 minutes. Thereafter, 50 μl of 50% acetic acid is added to terminate the reaction. The absorbance of the p-nitroaniline formed in the reaction mixture is measured at 405 nm. Thus, the concentration I50 (μmol) of the inhibitor sample, at which the absorbance is one half (i.e., 1/2) of that obtained in the absence of the inhibitor sample, is determined.
For test [4], the target named is T2, human plasmin (Homo sapiens, UniProt P00747). In words: Antiplasmin activity: inhibition of fibrin decomposition. As to conditions: read-out: Plasmin Fibrin (I50). The format is biochemical. On the procedure:
(i) Determination of inhibition activity for fibrin decomposition
An inhibitor sample is dissolved in a 0.18M borate-physiological salt buffer solution (pH=7.4) to make the total volume to 600 μl. To this buffer solution, 200 μl of a 0.2% bovine fibrinogen, 100 μl of a 0.3 casein unit/ml human plasmin solution, and 100 μl of a 50 unit/ml bovine thrombin solution, all dissolved in the above-mentioned buffer, are added at a temperature of 37° C. in a constant temperature bath. Then, the dissolution time of the fibrin mass formed above is determined.

The target in test [5] is T3, bovine trypsin (Bos taurus, UniProt P00760).
T3 sequence (P00760 24-246): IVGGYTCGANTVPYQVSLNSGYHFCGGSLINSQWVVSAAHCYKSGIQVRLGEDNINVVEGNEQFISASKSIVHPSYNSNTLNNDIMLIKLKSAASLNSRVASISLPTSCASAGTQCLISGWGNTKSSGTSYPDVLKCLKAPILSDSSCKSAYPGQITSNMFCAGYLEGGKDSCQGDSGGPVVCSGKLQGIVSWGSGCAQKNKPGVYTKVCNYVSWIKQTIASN
In words: Antitrypsin activity: inhibition of S-2238 decomposition. Format: biochemical.
Protocol: Determination of inhibition activity against S-2238 decomposition
An inhibitor sample is dissolved in a 0.05M Tris-imidazole buffer solution (pH=8.1) and 125 μl of a 1 mM S-2238 solution is added to make the total volume to 1.20 ml. The mixture is incubated at a temperature of 37° C. for 5 minutes in a constant temperature bath. To this mixture, 0.05 ml of bovine trypsin is added and the absorbance, at 405 nm, of the p-nitroaniline formed per minute is determined at a temperature of 37° C. by using the so-called initial velocity method. Thus, the concentration I50 (μmol) of the inhibitor sample, at which the absorbance is one half (i.e., 1/2) of that obtained in the absence of the inhibitor sample, is determined.

Test [6] concerns the target T2, human plasmin. In words: biochemical. The note with it: read-out: Plasmin S-2251 (I50). The procedure:
An inhibitor sample is dissolved in a 0.05M Tris-hydrochloric acid buffer solution (pH=7.4) to make the total volume of 400 μl. […] Then, 50 μl of a 0.2 casein unit/ml human plasmin is added and the mixture is incubated at a temperature of 37° C. for 4 minutes. Thereafter, the reaction is stopped by adding 50 μl of 50% acetic acid.
Thus, the concentration I50 (μmol) of the inhibitor sample, at which the absorbance is one half (i.e., 1/2) of that obtained in the absence of the inhibitor, is determined.

In test [7] the target is T1, bovine thrombin. The test can be described thus: Antithrombin activity: inhibition of fibrin formation from fibrinogen. Format: biochemical. On the procedure:
(i) Determination of inhibition activity against fibrin formation
An inhibitor sample is dissolved in a 0.18M borate-physiological salt buffer solution (pH=7.4) to make the total volume to 500 μl. To this solution, 400 μl of a 0.2% bovine fibrinogen solution and 100 μl of a 4 unit/ml bovine thrombin solution are added at a temperature of 37° C. in a constant temperature bath. Thus, a coagulation time is determined. The inhibitor concentration I50 (μmol), at which the coagulation time obtained in the absence of the inhibitor is extended twice, is determined.

Where [8] appears, read: Table 2, S-2444 substrate, pH 8.8, 37° C., read-out: Urokinase S-2444 (I50).
The mark [9] stands for this setting: Table 2, S-2302 substrate, pH 7.8, 37° C., read-out: Plasma Kallikrein S-2302 (I50).
The mark [10] stands for this setting: Table 2, concentration at which fibrin dissolution time is extended twice, pH 7.4, 37° C.
Setting [11] is: Table 2, S-2238 substrate, pH 8.1, 37° C., read-out: Trypsin S-2238 (I50).
The mark [12] stands for this setting: Table 4, comparative compounds of Table 3, pH 8.3.
Setting [13] is: Table 4, comparative compounds of Table 3, fibrin dissolution time extended twice.
The mark [14] stands for this setting: Table 4, comparative compounds of Table 3, S-2251 substrate, pH 7.4, 37° C.
Setting [15] is: Table 4, comparative compounds of Table 3, coagulation time extended twice, read-out: Thrombin Fibrinogen (I50).

T2 sequence (P00747 581-810 limits assumed): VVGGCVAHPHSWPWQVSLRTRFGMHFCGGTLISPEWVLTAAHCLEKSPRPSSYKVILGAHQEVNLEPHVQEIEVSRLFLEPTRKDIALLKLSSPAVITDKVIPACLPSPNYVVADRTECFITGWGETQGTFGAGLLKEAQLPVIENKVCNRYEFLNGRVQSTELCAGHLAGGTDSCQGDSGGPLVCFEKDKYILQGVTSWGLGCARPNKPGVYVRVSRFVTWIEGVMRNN
T2 sequence (P00747 97-580 partner limits assumed): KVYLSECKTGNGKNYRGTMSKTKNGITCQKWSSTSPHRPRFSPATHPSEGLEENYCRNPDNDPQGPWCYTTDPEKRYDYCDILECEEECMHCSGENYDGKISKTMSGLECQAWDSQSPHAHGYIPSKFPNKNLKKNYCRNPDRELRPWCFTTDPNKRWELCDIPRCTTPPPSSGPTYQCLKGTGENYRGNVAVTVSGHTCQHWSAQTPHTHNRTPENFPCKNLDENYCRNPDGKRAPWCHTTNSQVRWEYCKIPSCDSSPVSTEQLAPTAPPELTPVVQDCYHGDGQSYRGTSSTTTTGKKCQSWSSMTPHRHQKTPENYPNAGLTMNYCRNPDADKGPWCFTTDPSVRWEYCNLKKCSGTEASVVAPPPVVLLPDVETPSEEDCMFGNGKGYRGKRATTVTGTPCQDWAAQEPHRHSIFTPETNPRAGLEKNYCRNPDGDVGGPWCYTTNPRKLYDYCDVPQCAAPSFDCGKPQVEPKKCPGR
Chain of human plasma kallikrein (P03952 391-638 limits assumed): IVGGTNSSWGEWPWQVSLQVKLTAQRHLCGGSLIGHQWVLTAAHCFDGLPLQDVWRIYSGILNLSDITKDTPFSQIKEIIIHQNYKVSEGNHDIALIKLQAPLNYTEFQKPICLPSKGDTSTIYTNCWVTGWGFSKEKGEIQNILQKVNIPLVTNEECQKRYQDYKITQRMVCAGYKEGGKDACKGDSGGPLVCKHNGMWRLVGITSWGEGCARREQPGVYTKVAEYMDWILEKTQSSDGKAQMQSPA
Chain of human plasma kallikrein (P03952 20-390 partner limits assumed): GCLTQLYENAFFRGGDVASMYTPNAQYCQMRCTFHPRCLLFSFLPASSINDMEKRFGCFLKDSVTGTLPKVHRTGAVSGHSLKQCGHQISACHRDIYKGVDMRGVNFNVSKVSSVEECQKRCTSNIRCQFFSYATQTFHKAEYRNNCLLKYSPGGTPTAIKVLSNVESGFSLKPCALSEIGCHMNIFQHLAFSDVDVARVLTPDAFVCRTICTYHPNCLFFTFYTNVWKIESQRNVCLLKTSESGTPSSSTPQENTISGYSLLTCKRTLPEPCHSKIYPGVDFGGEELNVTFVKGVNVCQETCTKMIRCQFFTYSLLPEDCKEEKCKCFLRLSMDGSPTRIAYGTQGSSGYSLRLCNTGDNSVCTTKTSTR

For the compound `NC[C@H]1CC[C@H](C(=O)N[C@@H](Cc2ccc(OCc3ccccc3)cc2)C(=O)Nc2ccc(S(N)(=O)=O)cc2)CC1` [Compound No. 47, N-(trans-4-aminomethylcyclohexylcarbonyl)-4-benzyloxy-L-phenylalanine 4-sulfamoylanilide hydrochloride], the IC50 in test [1] (Table 2, pH 8.3, 37° C.) is more than 400 µM; in test [2] (setting [8]) it was 130 µM; in test [3] (setting [9]) it was 4.5 µM; in test [4] (setting [10]), 1 µM; in test [5] (setting [11]), 7.5 µM; in test [6], 8.9 µM. The IC50 in test [7] is more than 200 µM.

As to `NC[C@H]1CC[C@H](C(=O)N[C@@H](Cc2ccc(OCc3ccccc3)cc2)C(=O)Nc2ccnc(Cl)c2)CC1` [Compound No. 59, N-(trans-4-aminomethylcyclohexylcarbonyl)-4-benzyloxy-L-phenylalanine 4-(2-chloro)pyridylamide hydrochloride], the IC50 is more than 125 µM in test [1] (Table 2, pH 8.3, 37° C.); 40 µM in test [2] (setting [8]); 0.42 µM in test [3] (setting [9]); 0.18 µM in test [4] (setting [10]); 0.67 µM in test [5] (setting [11]); 1.4 µM in test [6]. In addition, the IC50 in test [7] is more than 250 µM.

In the case of `CC1CCC(NC(=O)[C@H](Cc2ccc(OCc3ccccc3)cc2)NC(=O)c2ccc(CN)cc2)CC1C` (stereo partly drawn) [Compound No. 80, N-(4-aminomethylbenzoyl)-4-benzyloxy-L-phenylalanine 3,4-dimethylcyclohexylamide hydrochloride], the IC50 in test [1] (Table 2, pH 8.3, 37° C.) is more than 100 µM; in test [2] (setting [8]), more than 400 µM; in test [3] (setting [9]) it was 17 µM; in test [4] (setting [10]), 0.33 µM; in test [5] (setting [11]), 0.45 µM; in test [6] it was 1.1 µM. In test [7], this compound came in with an IC50 of more than 50 µM.

In the case of `CC(=O)c1ccc(NC(=O)[C@H](Cc2ccc(Oc3ccc([N+](=O)[O-])cc3)cc2)NC(=O)[C@H]2CC[C@H](CN)CC2)cc1` [Compound No. 95, N-(trans-4-aminomethylcyclohexylcarbonyl)-4-(4-nitrophenoxy)-L-phenylalanine 4-acetylanilide hydrochloride], the IC50 is more than 400 µM in test [1] (Table 2, pH 8.3, 37° C.); 8 µM in test [2] (setting [8]); 0.14 µM in test [3] (setting [9]); 0.27 µM in test [4] (setting [10]); 1.5 µM in test [5] (setting [11]); 0.63 µM in test [6]. Further, in test [7], the IC50 is more than 100 µM.

Turning to `NCc1ccc(C(=O)N[C@@H](Cc2ccc(OCc3ccccc3)cc2)C(=O)NCc2ccncc2)cc1` [Compound No. 96, N-(4-aminomethylbenzoyl)-4-benzyloxy-L-phenylalanine 4-picolylamide dihydrochloride], the IC50 in test [1] (Table 2, pH 8.3, 37° C.) was more than 100 µM; in test [2] (setting [8]), more than 500 µM; in test [3] (setting [9]), 350 µM; in test [4] (setting [10]), 18 µM; in test [5] (setting [11]), 22 µM; in test [6] it was 29 µM. The IC50 in test [7] was more than 250 µM.

Regarding `CC(=O)c1ccc(NC(=O)[C@H](Cc2ccc(Oc3ccc([N+](=O)[O-])cn3)cc2)NC(=O)[C@H]2CC[C@H](CN)CC2)cc1` [Compound No. 121, N-(trans-4-aminomethylcyclohexylcarbonyl)-4-(5-nitro-2-pyridyloxy)-L-phenylalanine 4-acetylanilide hydrochloride], the IC50 in test [1] (Table 2, pH 8.3, 37° C.) was determined as 280 µM; in test [2] (setting [8]) it was 19 µM; in test [3] (setting [9]) it was 0.18 µM; in test [4] (setting [10]), 0.43 µM; in test [5] (setting [11]), 0.24 µM; in test [6] it was 0.95 µM. Besides, the IC50 in test [7] is more than 200 µM.

Consider `CC(=O)c1ccc(NC(=O)[C@H](Cc2ccc(OCc3cccc(C#N)c3)cc2)NC(=O)[C@H]2CC[C@H](CN)CC2)cc1` [Compound No. 122, N-(trans-4-aminomethylcyclohexylcarbonyl)-4-(3-cyanobenzyloxy)-L-phenylalanine 4-acetylanilide hydrochloride], for which the IC50 is more than 200 µM in test [1] (Table 2, pH 8.3, 37° C.); 34 µM in test [2] (setting [8]); 0.43 µM in test [3] (setting [9]); 0.31 µM in test [4] (setting [10]); 1 µM in test [5] (setting [11]); 1.1 µM in test [6]. The same compound had an IC50 in test [7] of more than 50 µM.

With `NC[C@H]1CC[C@H](C(=O)N[C@@H](Cc2ccc(Oc3cc(Cl)ccc3[N+](=O)[O-])cc2)C(=O)Nc2ccncc2)CC1` [Compound No. 137, N-(trans-4-aminomethylcyclohexylcarbonyl)-4-(3-chloro-6-nitrophenoxy)-L-phenylalanine 4-pyridylamide dihydrochloride], the IC50 was more than 400 µM in test [1] (Table 2, pH 8.3, 37° C.); 37 µM in test [2] (setting [8]); 0.66 µM in test [3] (setting [9]); 0.58 µM in test [4] (setting [10]); 1.2 µM in test [5] (setting [11]); 0.9 µM in test [6]. For the same compound, the IC50 in test [7] was more than 200 µM.

For `NCc1ccc(C(=O)NC(Cc2ccccc2)C(=O)N2CCCCC2)cc1` (stereo not drawn) [Table 3 Compound No. 3, reference compound], the IC50 was more than 1000 µM in test [1] (setting [12]); more than 1000 µM in test [2] (Table 4, comparative compounds of Table 3, S-2444 substrate, pH 8.8, read-out: Urokinase S-2444 (I50)); more than 1000 µM in test [3] (Table 4, comparative compounds of Table 3, S-2302 substrate, pH 7.8, read-out: Plasma Kallikrein S-2302 (I50)); more than 1000 µM in test [4] (setting [13]); more than 300 µM in test [5] (Table 4, comparative compounds of Table 3, S-2238 substrate, pH 8.1, read-out: Trypsin S-2238 (I50)); more than 1000 µM in test [6] (setting [14]). For the same compound, in test [7] (setting [15]), the IC50 was more than 1000 µM.

Consider `CC(=O)NC(Cc1ccc([N+](=O)[O-])cc1)C(=O)Nc1ccc([N+](=O)[O-])cc1` (stereo not drawn) [Table 3 Compound No. 4, reference compound], for which the IC50 is more than 100 µM in test [1] (setting [12]); more than 100 µM in test [2]; more than 100 µM in test [3]; more than 100 µM in test [4] (setting [13]); more than 150 µM in test [5]; more than 100 µM in test [6] (setting [14]). In test [7] (setting [15]), the IC50 is more than 100 µM.

Regarding `CSc1ccc(NC(=O)[C@H](Cc2ccc(OCc3ccccc3)cc2)NC(=O)[C@H]2CC[C@H](CN)CC2)cc1` [compound 29], the IC50 in test [1] (Table 2, pH 8.3, 37° C.) was more than 50 µM; in test [2] (setting [8]), 330 µM; in test [3] (setting [9]) it was 1.1 µM; in test [4] (setting [10]) it was 0.35 µM; in test [5] (setting [11]) it was 3.1 µM; in test [6], 3.1 µM. Also, the IC50 in test [7] was more than 25 µM.

For `CC(=O)c1ccc(NC(=O)[C@H](Cc2ccc(OCC(=O)c3ccccc3)cc2)NC(=O)[C@H]2CC[C@H](CN)CC2)cc1` [compound 30], the IC50 was 280 µM in test [1] (Table 2, pH 8.3, 37° C.); 80 µM in test [2] (setting [8]); 0.37 µM in test [3] (setting [9]); 0.95 µM in test [4] (setting [10]); 1 µM in test [5] (setting [11]); 1.4 µM in test [6]. Also, the IC50 in test [7] was more than 50 µM.
